According to patent publication US12077483B2, “Modified amine lipids” (Intellia Therapeutics, Inc., priority 2018, dated 2024):

What was measured:
[1] = RNA encapsulation efficiency of LNP (Ribogreen fluorescence assay); format: physicochemical; details: LNP with the compound as amine lipid, composition ratio (mol %) 50/9/38/3 for Cmpnd 49, 50/10/38.5/1.5 for the others
Description: A fluorescence-based assay (Ribogreen®, ThermoFisher Scientific) is used to determine total RNA concentration and free RNA. Encapsulation efficiency is calculated as (Total RNA—Free RNA)/Total RNA. LNP samples are diluted appropriately with 1× TE buffer containing 0.2% Triton-X 100 to determine total RNA or 1× TE buffer to determine free RNA. Standard curves are prepared by utilizing the starting RNA solution used to make the compositions and diluted in 1× TE buffer+/−0.2% Triton-X 100. Diluted RiboGreen® dye (according to the manufacturer's instructions) is then added to each of the standards and samples and allowed to incubate for approximately 10 minutes at room temperature, in the absence of light. A SpectraMax M5 Microplate Reader (Molecular Devices) is used to read the samples with excitation, auto cutoff and emission wavelengths set to 488 nm, 515 nm, and 525 nm respectively. Total RNA and free RNA are determined from the appropriate standard curves.
Encapsulation efficiency is calculated as (Total RNA−Free RNA)/Total RNA. The same procedure may be used for determining the encapsulation efficiency of a DNA-based cargo component. For single-strand DNA, Oligreen Dye may be used and for double-strand DNA, Picogreen Dye.

[2] = LNP average particle size and polydispersity by dynamic light scattering; format: physicochemical; details: LNP with the compound as amine lipid, composition ratio (mol %) 50/9/38/3 for Cmpnd 49, 50/10/38.5/1.5 for the others
Text: The LNPs have a size of about 1 to about 1,000 nm, about 10 to about 500 nm, about 20 to about 500 nm, in a sub-embodiment about 50 to about 400 nm, in a sub-embodiment about 50 to about 300 nm, in a sub-embodiment about 50 to about 200 nm, and in a sub-embodiment about 50 to about 150 nm, and in another sub-embodiment about 60 to about 120 nm. Preferably, the LNPs have a size from about 60 nm to about 100 nm. The average sizes (diameters) of the fully formed LNP, may be measured by dynamic light scattering on a Malvern Zetasizer. The LNP sample is diluted in phosphate buffered saline (PBS) so that the count rate is approximately 200-400 kcps. The data is presented as a weighted average of the intensity measure.
In some embodiments, the LNPs have a size of about 75 to about 120 nm. In some embodiments, the LNPs have a size of about 75 to about 100 nm. Unless indicated otherwise, all sizes referred to herein are the average sizes (diameters) of the fully formed nanoparticles, as measured by dynamic light scattering on a Malvern Zetasizer. The nanoparticle sample is diluted in phosphate buffered saline (PBS) so that the count rate is approximately 200-400 kcps. The data is presented as a weighted-average of the intensity measure (Z-average diameter).
Dynamic Light Scattering (“DLS”) is used to characterize the polydispersity index (“pdi”) and size of the LNPs of the present disclosure. DLS measures the scattering of light that results from subjecting a sample to a light source. PDI, as determined from DLS measurements, represents the distribution of particle size (around the mean particle size) in a population, with a perfectly uniform population having a PDI of zero. Electropheretic light scattering is used to characterize the surface charge of the LNP at a specified pH. The surface charge, or the zeta potential, is a measure of the magnitude of electrostatic repulsion/attraction between particles in the LNP suspension. Asymmetric-Flow Field Flow Fractionation—Multi-Angle Light Scattering (AF4-MALS) is used to separate particles in the composition by hydrodynamic radius and then measure the molecular weights, hydrodynamic radii and root mean square radii of the fractionated particles. […] Nanoparticle tracking analysis (NTA, Malvern Nanosight) can be used to determine particle size distribution as well as particle concentration. LNP samples are diluted appropriately and injected onto a microscope slide. A camera records the scattered light as the particles are slowly infused through field of view. After the movie is captured, the Nanoparticle Tracking Analysis processes the movie by tracking pixels and calculating a diffusion coefficient. This diffusion coefficient can be translated into the hydrodynamic radius of the particle. The instrument also counts the number of individual particles counted in the analysis to give particle concentration.
LNP compositions are analyzed for average particle size, polydispersity index (pdi), total RNA content, encapsulation efficiency of RNA, and zeta potential. LNP compositions may be further characterized by lipid analysis, AF4-MALS, NTA, and/or cryo-EM. Average particle size and polydispersity are measured by dynamic light scattering (DLS) using a Malvern Zetasizer DLS instrument. LNP samples were diluted with PBS buffer prior to being measured by DLS. Z-average diameter which is an intensity-based measurement of average particle size was reported along with number average diameter and pdi. A Malvern Zetasizer instrument is also used to measure the zeta potential of the LNP. Samples are diluted 1:17 (50 μL into 800 μL) in 0.1×PBS, pH 7.4 prior to measurement.

[3] = tested on: mouse TTR; experiment: Serum TTR ELISA in mice after LNP delivery; format: in vivo; details: mouse serum, relative to TSS control of same experiment
Description: For studies measuring in vivo editing in liver, CD-1 female mice were dosed at 0.1 mpk unless otherwise noted. Animals were euthanized at 6 or 7 days by exsanguinationvia cardiac puncture under isoflourane anesthesia. Liver tissue was collected from each animal for DNA extraction and analysis. Blood was collected into serum separator tubes or into tubes containing buffered sodium citrate for plasma as described herein. Cohorts of mice were measured for editing by Next-Generation Sequencing (NGS).
Blood was collected and the serum was isolated as indicated. The total mouse TTR serum levels were determined using a Mouse Prealbumin (Transthyretin) ELISA Kit (Aviva Systems Biology, Cat. OKIA00111). Briefly, sera were serial diluted with kit sample diluent, e.g. to a final dilution of 10,000-fold and/or 2,500-fold. The diluted sample was then added to the ELISA plates and the assay was then carried out according to directions. Serum TTR data from treatment groups are expressed as a percentage of vehicle control levels.

[4] = pKa of amine lipid by TNS fluorescence; format: physicochemical; details: probe TNS (6-(p-toluidino)-2-naphthalenesulfonic acid sodium salt), unformulated amine lipid in ethanol, sodium phosphate buffers -9.0
Description: The pKa of each amine lipid was determined according to the method in Jayaraman, et al. (Angewandte Chemie, 2012) with the following adaptations. The pKa was determined for unformulated amine lipid in ethanol. Lipid stock solutions (2.94 mM) were diluted into Sodium Phosphate Buffers (0.1 M, Boston Bioproducts) of different pH (pH-range: 4.5-9.0) yielding a final lipid concentration of approx. 100 μM. The test samples were supplemented with TNS {6-(p-Toluidino)-2-naphthalenesulfonic acid sodium salt}, incubated and the fluorescence intensity was measured using excitation and emission wavelengths of 321 nm and 448 nm, respectively. The recorded data were normalized and the respective pKa values were derived from sigmoidal fitting.

Row | SMILES | Encapsulation (%) ([1]; Expt. 1) | Num Ave Size (nm) ([2]; Expt. 1) | PDI ([2]; Expt. 1) | Z-Ave Size (nm) ([2]; Expt. 1) | Serum TTR % TSS ([3]; dose 0.1 mpk) [% TSS] | pKa [4] | Encapsulation (%) ([1]; Expt. 8) | Num Ave Size (nm) ([2]; Expt. 8) | PDI ([2]; Expt. 8) | Z-Ave Size (nm) ([2]; Expt. 8) | Serum TTR % TSS ([3]; dose 0.03 mpk) [% TSS] | Encapsulation (%) ([1]; Expt. 7) | Num Ave Size (nm) ([2]; Expt. 7) | PDI ([2]; Expt. 7) | Z-Ave Size (nm) ([2]; Expt. 7)
1 | CCCCCCCCCCCOC(=O)CCCCCCCC(=O)OCC(COC(=O)CCCCCCCC(=O)OCCCCCCCCCCC)OC(=O)CC(CCCCCCCC)OC(=O)NCCN(C)CC (centres unmarked) [Compound 59, O′1,O1-(2-((3-(((2-(ethyl(methyl)amino)ethyl)carbamoyl)oxy)undecanoyl)oxy)propane-1,3-diyl) 9,9′-diundecyl di(nonanedioate)] | 97 | 88.36 | 0.03 | 109.90 | 80.70 | 6.34 |  |  |  |  |  |  |  |  | 
2 | CCCCCCCCCCCOC(=O)CCCCCCCC(=O)OCC(COC(=O)CCCCCCCC(=O)OCCCCCCCCCCC)OC(=O)CCC(CCCCCCCC)OC(=O)NCCN(C)CC (centres unmarked) [Compound 60, O′1,O1-(2-((4-(((2-(ethyl(methyl)amino)ethyl)carbamoyl)oxy)dodecanoyl)oxy)propane-1,3-diyl) 9,9′-diundecyl di(nonanedioate)] | 97 | 79.57 | 0.07 | 103.40 | 60.51 | 6.22 |  |  |  |  |  |  |  |  | 
3 | CCCCCCCCCCCOC(=O)CCCCCCCC(=O)OCC(COC(=O)CCCCCCCC(=O)OCCCCCCCCCCC)OC(=O)CCCC(CCCCCCCC)OC(=O)NCCN(C)CC (centres unmarked) [Compound 61, O′1,O1-(2-((5-(((2-(ethyl(methyl)amino)ethyl)carbamoyl)oxy)tridecanoyl)oxy)propane-1,3-diyl) 9,9′-diundecyl di(nonanedioate)] | 97 | 79.7 | 0.06 | 102.00 | 81.48 | 6.29 |  |  |  |  |  |  |  |  | 
4 | CCCCC/C=C\C/C=C\CCCCCCCC(=O)OCC(COC(=O)CCCCCCCC(=O)OCCCCCCCCCCC)OC(=O)CC(CCCCCCCC)OC(=O)NCCN(C)CC (centres unmarked) [Compound 62, 1-(3-methyl-13-((((9Z,12Z)-octadeca-9,12-dienoyl)oxy)methyl)-9-octyl-7,11-dioxo-8,12-dioxa-3,6-diazatetradecan-14-yl) 9-undecyl nonanedioate] | 97 | 87.26 | 0.04 | 106.40 | 57.89 | 6.32 |  |  |  |  |  |  |  |  | 
5 | CCCCC/C=C\C/C=C\CCCCCCCC(=O)OCC(COC(=O)CCCCCCCC(=O)OCCCCCCCCCCC)OC(=O)CCC(CCCCCCCC)OC(=O)NCCN(C)CC (centres unmarked) [Compound 63, 1-(3-methyl-14-((((9Z,12Z)-octadeca-9,12-dienoyl)oxy)methyl)-9-octyl-7,12-dioxo-8,13-dioxa-3,6-diazapentadecan-15-yl) 9-undecyl nonanedioate] | 98 | 82.18 | 0.04 | 106.00 | 83.86 | 6.32 |  |  |  |  |  |  |  |  | 
6 | CCCCC/C=C\C/C=C\CCCCCCCC(=O)OCC(COC(=O)CCCCCCCC(=O)OCCCCCCCCCCC)OC(=O)CCCC(CCCCCCCC)OC(=O)NCCN(C)CC (centres unmarked) [Compound 64, 1-(3-methyl-15-((((9Z,12Z)-octadeca-9,12-dienoyl)oxy)methyl)-9-octyl-7,13-dioxo-8,14-dioxa-3,6-diazahexadecan-16-yl) 9-undecyl nonanedioate] | 97 | 86.19 | 0.02 | 106.40 | 85.39 | 6.3 |  |  |  |  |  |  |  |  | 
7 | CCCCC/C=C\C/C=C\CCCCCCCC(=O)OCC(COC(=O)CCCCCCC/C=C\C/C=C\CCCCC)OC(=O)CCC(CCCCCCCCCC)OC(=O)NCC1CCCN1C (centres unmarked) [Compound 65, 2-((4-((((1-methylpyrrolidin-2-yl)methyl)carbamoyl)oxy)tetradecanoyl)oxy)propane-1,3-diyl (9Z,9′Z,12Z,12′Z)-bis(octadeca-9,12-dienoate)] |  |  |  |  | 99.22 | 6.37 | 99 | 52.04 | 0.056 | 69.67 | 119.84 |  |  |  | 
8 | CCCCC/C=C\C/C=C\CCCCCCCC(=O)OCC(COC(=O)CCCCCCC/C=C\C/C=C\CCCCC)OC(=O)CCC(CCCCCCCCCC)OC(=O)OCCCN1CCCC1 (centres unmarked) [Compound 66, 2-((4-(((3-(pyrrolidin-1-yl)propoxy)carbonyl)oxy)tetradecanoyl)oxy)propane-1,3-diyl (9Z,9′Z,12Z,12′Z)-bis(octadeca-9,12-dienoate)] |  |  |  |  | 19.674 | 6.15 |  |  |  |  | 54.682 | 98 | 65.07 | 0.035 | 79.79
